Like-named read-outs stand apart in the source and are kept apart here.
Experiments:
[1] = molecular target: T1, human somatostatin receptor subtype 2 (Homo sapiens, UniProt P30874); experiment: cAMP assay for SST2R (inhibition of cAMP via human SST2 receptor); assay type: cell-based; conditions: Table B, read-out: SST2 potency
T1 construct: expressed in transfected cells
Source text: cAMP Assay Protocol for SST2R:

[2] = molecular target: human somatostatin receptor subtype 5 (Homo sapiens, UniProt P35346); experiment: cAMP assay for SST5R (inhibition of cAMP via human SST5 receptor)
Chain of human somatostatin receptor subtype 5 (P35346 whole entry): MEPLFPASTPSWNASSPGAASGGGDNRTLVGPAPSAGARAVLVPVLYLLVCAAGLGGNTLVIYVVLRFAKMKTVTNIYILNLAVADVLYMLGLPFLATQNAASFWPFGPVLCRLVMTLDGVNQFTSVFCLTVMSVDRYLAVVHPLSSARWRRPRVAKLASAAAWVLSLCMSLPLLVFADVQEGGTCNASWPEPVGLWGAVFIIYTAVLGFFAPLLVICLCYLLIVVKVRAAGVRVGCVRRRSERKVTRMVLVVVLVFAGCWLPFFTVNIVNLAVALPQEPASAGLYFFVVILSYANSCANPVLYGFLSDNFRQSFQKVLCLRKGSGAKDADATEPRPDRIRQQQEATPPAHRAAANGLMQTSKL

[3] = read-out: SST5 potency, inhibition of cAMP via human SST5 receptor, Table B

T1 sequence (P30874 whole entry): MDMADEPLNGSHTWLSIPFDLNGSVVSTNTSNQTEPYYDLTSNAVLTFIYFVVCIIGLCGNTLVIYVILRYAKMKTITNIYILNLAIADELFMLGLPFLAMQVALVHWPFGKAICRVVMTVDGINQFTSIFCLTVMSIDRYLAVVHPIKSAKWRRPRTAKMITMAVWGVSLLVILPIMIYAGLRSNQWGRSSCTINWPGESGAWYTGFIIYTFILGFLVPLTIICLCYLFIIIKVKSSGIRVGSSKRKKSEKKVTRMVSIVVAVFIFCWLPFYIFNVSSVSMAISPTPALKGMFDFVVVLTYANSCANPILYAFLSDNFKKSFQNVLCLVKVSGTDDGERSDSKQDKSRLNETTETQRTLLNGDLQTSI

| SMILES | EC50 [1] | EC50 [2] | Fold selectivity for SST5 vs SST2 ([2]; SST5 over SST2, class symbols) | EC50 [2, 3] | Fold selectivity for SST5 vs SST2 ([2]; SST5 over SST2, given as number (comparison compounds)) |
| --- | --- | --- | --- | --- | --- |
| Cc1cc(F)cc(-c2cncc(-c3nc4cc(Cl)ccc4[nH]3)c2N2CC(CN)C2)c1 [Compound 1-4, 1-{1-[3-(5-chloro-1H-1,3-benzodiazol-2-yl)-5-(3-fluoro-5-methylphenyl)pyridin-4-yl]azetidin-3-yl}methanamine] | > 1000 nM | 10 to 100 nM | ++ (++=100 to 499) | 10 to 100 nM | – |
| N#Cc1cccc(-c2cncc(-c3nc4cccc(F)c4[nH]3)c2N2CC[C@H](N)C2)c1 [Compound 2-7, 3-{4-[(3S)-3-aminopyrrolidin-1-yl]-5-(4-fluoro-1H-1,3-benzodiazol-2-yl)pyridin-3-yl}benzonitrile] | 100 to 1000 nM | < 10 nM | +++ (+++=≥500) | < 10 nM | – |
| Cc1cccc2nc(-c3cncc(-c4cc(F)cc(C(N)=O)c4)c3N3CC[C@H](N)C3)[nH]c12 [Compound 2-65, 3-{4-[(3S)-3-aminopyrrolidin-1-yl]-5-(4-methyl-1H-1,3-benzodiazol-2-yl)pyridin-3-yl}-5-fluorobenzamide] | 100 to 1000 nM | < 10 nM | ++ (++=100 to 499) | < 10 nM | – |
| N#Cc1cc(-c2cncc(-c3nc4cccc(C(F)(F)F)c4[nH]3)c2N2CC[C@H](N)C2)ccc1F [Compound 2-60, 5-{4-[(3S)-3-aminopyrrolidin-1-yl]-5-[4-(trifluoromethyl)-1H-1,3-benzodiazol-2-yl]pyridin-3-yl}-2-fluorobenzonitrile] | 100 to 1000 nM | < 10 nM | ++ (++=100 to 499) | < 10 nM | – |
| Cc1cccc(-c2cncc(-c3nc4c(C)cccc4[nH]3)c2N2CCC(N)CC2)c1 | < 10 nM | > 1000 nM | – | – | 0.002 |
| NC(=O)c1cccc(-c2cncc(-c3nc4c(F)ccc(F)c4[nH]3)c2N2CC[C@H](N)C2)c1 [Compound 2-43, 3-{4-[(3S)-3-aminopyrrolidin-1-yl]-5-(4,7-difluoro-1H-1,3-benzodiazol-2-yl)pyridin-3-yl}benzamide] | > 1000 nM | 10 to 100 nM | +++ (+++=≥500) | 10 to 100 nM | – |
| Cc1cccc2[nH]c(-c3cncc(-c4cc(F)c(F)c(C(N)=O)c4)c3N3CCC(C)(N)C3)nc12 (centres unmarked) [Compound 2-127, 5-[4-(3-Amino-3-methylpyrrolidin-1-yl)-5-(4-methyl-1H-1,3-benzodiazol-2-yl)pyridin-3-yl]-2,3-difluorobenzamide] | 100 to 1000 nM | < 10 nM | ++ (++=100 to 499) | < 10 nM | – |
| N#Cc1cc(-c2cncc(-c3nc4ccc(F)c(F)c4[nH]3)c2N2CC[C@H](N)C2)ccc1F [Compound 2-52, 5-{4-[(3S)-3-aminopyrrolidin-1-yl]-5-(4,5-difluoro-1H-1,3-benzodiazol-2-yl)pyridin-3-yl}-2-fluorobenzonitrile] | 100 to 1000 nM | < 10 nM | +++ (+++=≥500) | < 10 nM | – |
| CC1(N)CCN(c2c(-c3cc(F)cc(C(N)=O)c3)cncc2-c2nc3cccc(F)c3[nH]2)C1 (centres unmarked) [Compound 2-20, 3-[4-(3-amino-3-methylpyrrolidin-1-yl)-5-(4-fluoro-1H-1,3-benzodiazol-2-yl)pyridin-3-yl]-5-fluorobenzamide] | 100 to 1000 nM | < 10 nM | +++ (+++=≥500) | < 10 nM | – |

Now from value to molecule:

| EC50 [1] | EC50 [2] | Fold selectivity for SST5 vs SST2 ([2]; SST5 over SST2, class symbols) | EC50 [2, 3] | Fold selectivity for SST5 vs SST2 ([2]; SST5 over SST2, given as number (comparison compounds)) | SMILES |
| --- | --- | --- | --- | --- | --- |
| 100 to 1000 nM | < 10 nM | +++ (+++=≥500) | < 10 nM | – | CC1(N)CCN(c2c(-c3ccc(F)c(C#N)c3)cncc2-c2nc3cccc(C#N)c3[nH]2)C1 (centres unmarked) [Compound 2-147, 2-[4-(3-amino-3-methylpyrrolidin-1-yl)-5-(3-cyano-4-fluorophenyl)pyridin-3-yl]-1H-1,3-benzodiazole-4-carbonitrile] |
| 100 to 1000 nM | < 10 nM | +++ (+++=≥500) | < 10 nM | – | Cc1ccc(F)c2nc(-c3cncc(-c4ccc(F)c(C(N)=O)c4)c3N3CCC(C)(N)C3)[nH]c12 (centres unmarked) [Compound 2-125, 5-[4-(3-amino-3-methylpyrrolidin-1-yl)-5-(7-fluoro-4-methyl-1H-1,3-benzodiazol-2-yl)pyridin-3-yl]-2-fluorobenzamide] |
| 100 to 1000 nM | < 10 nM | +++ (+++=≥500) | < 10 nM | – | Cc1ccnc2nc(-c3cncc(-c4cc(F)cc(C#N)c4)c3N3CC[C@](C)(N)C3)[nH]c12 [Compound 2-202, 3-{4-[(3S)-3-amino-3-methylpyrrolidin-1-yl]-5-{7-methyl-1H-imidazo[4,5-b]pyridin-2-yl}pyridin-3-yl}-5-fluorobenzonitrile] |
| 100 to 1000 nM | < 10 nM | +++ (+++=≥500) | < 10 nM | – | C[C@]1(N)CCN(c2c(-c3ccnc(C#N)c3)cncc2-c2nc3cccc(Cl)c3[nH]2)C1 [Compound 2-163, 4-[(3S)-3-amino-3-methylpyrrolidin-1-yl]-5-(4-chloro-1H-1,3-benzodiazol-2-yl)-[3,4′-bipyridine]-2′-carbonitrile] |
| 10 to 100 nM | < 10 nM | ++ (++=100 to 499) | < 10 nM | – | Cc1ccnc2nc(-c3cncc(-c4cc(F)c(F)c(C#N)c4)c3N3CCC(C)(N)C3)[nH]c12 (centres unmarked) [Compound 2-140, 5-[4-(3-amino-3-methylpyrrolidin-1-yl)-5-{7-methyl-1H-imidazo[4,5-b]pyridin-2-yl}pyridin-3-yl]-2,3-difluorobenzonitrile] |
| 100 to 1000 nM | < 10 nM | +++ (+++=≥500) | < 10 nM | – | CC1(N)CCN(c2c(-c3cc(F)cc(C#N)c3)cncc2-c2nc3cccc(F)c3[nH]2)C1 (centres unmarked) [Compound 2-6, 3-[4-(3-amino-3-methylpyrrolidin-1-yl)-5-(4-fluoro-1H-1,3-benzodiazol-2-yl)pyridin-3-yl]-5-fluorobenzonitrile] |
| 10 to 100 nM | < 10 nM | +++ (+++=≥500) | < 10 nM | – | Cc1cccc2nc(-c3cncc(-c4ccnc(C#N)c4)c3N3CCC(C)(N)C3)[nH]c12 (centres unmarked) [Compound 2-123, 4-(3-amino-3-methylpyrrolidin-1-yl)-5-(4-methyl-1H-1,3-benzodiazol-2-yl)-[3,4′-bipyridine]-2′-carbonitrile] |
| 100 to 1000 nM | < 10 nM | +++ (+++=≥500) | < 10 nM | – | Cc1cccc2nc(-c3cncc(-c4ccc(F)c(C(N)=O)c4)c3N3CCC(C)(N)C3)[nH]c12 (centres unmarked) [Compound 2-124, 5-[4-(3-amino-3-methylpyrrolidin-1-yl)-5-(4-methyl-1H-1,3-benzodiazol-2-yl)pyridin-3-yl]-2-fluorobenzamide] |
| > 1000 nM | < 10 nM | +++ (+++=≥500) | < 10 nM | – | COc1ccnc2nc(-c3cncc(-c4ccc(F)c(C#N)c4)c3N3CC[C@](C)(N)C3)[nH]c12 [Compound 2-172, 5-{4-[(3S)-3-amino-3-methylpyrrolidin-1-yl]-5-{7-methoxy-1H-imidazo[4,5-b]pyridin-2-yl}pyridin-3-yl}-2-fluorobenzonitrile] |
